Assay results reported in patent publication US20250108088A1, “REGENERATIVE PEPTIDES AND METHODS FOR USE THEREOF” (priority 2023, published 2025).
Entries after “also recorded” stand apart in the source; their conditions may differ.

Assays:
[1] = system: Acinetobacter baumannii ATCC 196062; assay: Diffusion agar plate method, zone of inhibition; format: cell-based; conditions: 62.5 μg/ml to 1000 μg/ml; FIG. 5, FIG. 10
Procedure: (§1) Cell culture: Cultures of each bacterial strain were prepared by inoculating on Muller Hinton Agar (MHA) medium. After overnight incubation at 37° C., the density of the bacterial cells was compared to the McFarland turbidity standard (0.5).
(§2) Plates were swabbed with McFarland 0.5 inoculum of each test bacteria. […] serial dilutions of the peptides were prepared and 20 μl of compound were dropped onto the MHA. Antibiotic disc served as a positive control and vehicle alone served as the negative control. Plates were incubated for 16-18 hours and assessed for antibacterial activity. Zones of inhibition were measured for each TA dilution and compared with the controls.

[2] = system: Streptococcus pneumoniae DCC1335; assay: Diffusion agar plate method, zone of inhibition; format: cell-based; conditions: 62.5 μg/ml to 1000 μg/ml; FIG. 10
Procedure: as §1, §2

[3] = system: Acinetobacter baumannii ATCC 196062; assay: Broth microdilution method (MIC50/MIC90); format: cell-based; conditions: FIG. 11
Procedure: as §1
Ten-fold serial dilution of the peptide along with controls were prepared in Mueller Hinton Broth (MHB) media in a total volume of 50 μl in 96 well plates. Additionally, 50 μl of the diluted standard inoculum (1:150 in MHB media) were added to each of the well plates. The plates were read at OD600 nm. MIC50 and MIC90 curves were calculated from the plate readout. Each sample was run in duplicate.

[4] = system: Normal human dermal fibroblasts (HNDF); assay: Myofibroblast transition assay (MFT), aSMA immunofluorescence; format: cell-based
Excerpt: The myofibroblast transition (MFT) assay determines the effect of the peptide on inhibiting the transition of fibroblasts to myofibroblasts. The extracellular matrix produced by myofibroblasts may be produced in excess and may not be remodeled during tissue healing, leaving behind the fibrous connective tissue that forms a scar. Thus, the ability to regulate the degree of MFT may enable control of scarring. To determine if the peptides provided herein affect MFT, the following assay was performed.
Normal human dermal fibroblasts (HNDF) were cultured in high glucose Dulbecco's modified eagle medium (DMEM) supplemented with 10% fetal bovine serum (FBS) and 5 ml of 10,000 units of penicillin/streptomycin. Cells were cultured on 10 cm plates with media changes every 2 days. Cells were passaged in 0.25% Trypsin/EDTA after achieving 80% confluency.
To induce myofibroblast transition (MFT), normal human dermal fibroblasts (HNDFs) were split from 1-10 cm plates to 5-96 well plates. Cells were then allowed to grow the next day. The following day, cells were serum starved (1% FBS in DMEM) for 4 hours prior to adding 20 ng/ml of TGF-Beta to all wells of the plate. 1000 μM of Vactosertib (TEW-7197/EW-7197) was added to serve as a positive control and different concentrations of peptides were added to serve as the test articles. The cells were then exposed to the compounds for 5 more days before fixation.
The cells were fixed in paraformaldehyde (PFA) for 10-15 minutes, then washed 2× in PBS. Cells were blocked in 4% BSA for 30 minutes at 23° C. Cells were stained with the primary alpha-smooth muscle actin (aSMA) antibody (1:100) for 1 hour at 23° C. or left out at 4° C. overnight. Cells were rinsed 2× with BSA and then the secondary antibody mix was added: Alexa 488 (1:500) and DAPI (1:1000) for 30 min at 23° C. or 1 hr at 4° C. The plates were covered during staining, then rinsed 2× in BSA and stored in PBS.
Plates were imaged using the Celigo Imaging Cytometer by Nexcelcom. The ratio of fluorescent expression of alpha-smooth muscle actin (aSMA) and DAPI were quantified to determine the amount of aSMA/cell.
The change (normalized to the control) in MFT for each concentration is shown along with the p value for all experiments relative to the control of no peptide.

skin after dermabrasion [5] = assay: Clinical study, Visioscan skin smoothness after dermabrasion; format: in vivo, human; conditions: 8, 24, 48 and 72 hours after dermabrasion; vehicle cream base
Procedure: (§3) To determine the effects of exemplary peptides p1-p9 on tissue healing, a clinical study was performed that assessed transepidermal water loss (TEWL) and skin smoothness after dermabrasion.
(§4) This exemplary vehicle cream has a pH of 5.0, no odor and is white in color.
(§5) After 8 hours (T8h) of first product application, the subjects returned to the Institute, acclimated for 15 minutes and new Vapometer® to measure TEWL and Visioscan® VC 20Plus to measure skin smoothness was performed. After 1 (T1d), 2 (T2d) and 3 (T3d) days the subjects returned to the Institute, acclimated for 15 minutes and new measurements were performed. At time-points T1d and T2d new product application was performed by the technician on each test site. A total of 49 study subjects were included in the study and a total of 41 completed the study. The study included post-menopausal female subjects, aged between 50 and 65 years old (mean age: 59 years old), presenting Fitzpatrick Skin Types II-V.
Skin texture images were performed using the Visioscan® VC 20Plus, which allows taking pictures of the skin through magnifying lenses. The images enable a view of the skin topography, texture, dryness, desquamation, blemishes, pores, and cuticles.

skin after dermabrasion [6] = assay: Clinical study, transepidermal water loss (TEWL, Vapometer) after dermabrasion; format: in vivo, human; conditions: 8, 24, 48 hours, vehicle cream base
Procedure: as §3, §4
as §5, with “The study included post-menopausal female subjects, aged between 50 and 65 years old (mean age: 59 years old), presenting Fitzpatrick Skin Types II-V.” left out
The TEWL measurements were performed by using the Vapometer® device through a measurement probe. The readings were taken by applying the probe to the test sites, by resting it against the skin.
The measurements principle is diffusion, which indicates the mass of water per cm^2 that is transported in a given period of time, that is, the reading indicates the degree of water evaporation on the skin surface based on the sensitivity of hygro-sensors. The scale used is g/h/m^2, in which greater values of reading indicate higher evaporation. […]

skin post-dermabrasion = assay: Clinical study, erythema (Chromameter a* value) post-dermabrasion; format: in vivo, human; conditions: 4 hours and 12 hours after application
Procedure: To determine the effects of the peptides on skin redness, the peptides P2, P3, and the combination of P2+P3 were tested at different concentration levels and subject's skin redness (erythema) was measured post-dermabrasion and 2, 4, 8, 12, 24, 48 and 72 hours post-application. The subjects were 30 post-menopausal female subjects, aged 50-65 years or younger, if post-menopausal. Enrolled subjects were to have Fitzpatrick Skin Types II-V. At baseline (post-dermabrasion) and 2, 4, 8, 12, 24, 48 and 72 hours post-application, skin redness was measured on 4 skin sites using the Chromameter® (Konica Minolta, Ramsey NJ). In order to determine any changes in skin redness, the a* value was analyzed. The a* value measures redness/erythema in the skin. A decrease in the a* value corresponded to a whitening/improvement (less red) effect and an increase in the a*value represented a darkening/worsening (redder) effect

Row | Sequence | agar zone of inhibition, inhibiting bacterial growth [1] | agar zone of inhibition, inhibiting bacterial growth [2] | MIC50 and MIC90, inhibiting bacterial growth in broth [3] | Myofibroblast transition (MFT), aSMA/cell, % change relative to control ([4]; 1000 ng/ml peptide, N = 3, TGF-Beta induced HNDF, control of no peptide) [%] | MFT, Representative value from experiments (% change relative to control) ([4]; most effective significant concentration of 10, 100, 1000 ng/ml, N = 3) | aSMA decrease relative to the control (fluorescence, FIG. 3) ([4]; negative control of no peptide) [%] | skin smoothness (Visioscan) (skin after dermabrasion [5]) | TEWL, skin barrier restoration (skin after dermabrasion [6]) | skin redness (erythema), a* value (skin post-dermabrasion)
1 | SLSRTLWAWLPRPCKSN [MBdol20] | effective | effective | most effective |  |  |  |  |  | 
2 | SKPAKAPE [Peptide P3] |  |  |  | −0.4914 | −0.4914 p = (0.006) % | 49 | visible; also recorded: most promising skin smoothness results | most promising TEWL assay results; also recorded: most promising results in skin barrier restoration | significantly improved erythema; also recorded: improve skin redness
